The supplement of paper PMC10307832

Experiments:
Experiment in all cases: relative viability (nuclei count vs DMSO), 5 days (fraction); higher = more cells survive
NCI-H2023 = system: NCI-H2023
How it was run: (§1)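 Relative viability is defined as nuclei in treated wells over nuclei in vehicle wells. Duplicate plates were run and medians reported. Lung cancer cell lines in 1536-well plates were dosed by pin tool one day after seeding, with one drug or with a fixed anchor-drug dose plus five library-drug doses (not always all listed) in √10 steps, and nuclei were counted after 5 days.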

COR-L 105 = system: COR-L 105
How it was run: as §1

COR-L23 = system: COR-L23
How it was run: as §1

NCI-H1975 = system: NCI-H1975
How it was run: as §1

CAL-12T = system: CAL-12T
How it was run: as §1

NCI-H2170 = system: NCI-H2170
How it was run: as §1

LXF-289 = system: LXF-289
How it was run: as §1

HOP-62 = system: HOP-62
How it was run: as §1

NCI-H1651 = system: NCI-H1651
How it was run: as §1

NCI-H650 = system: NCI-H650
How it was run: as §1

NCI-H3122 = system: NCI-H3122
How it was run: as §1

SK-MES-1 = system: SK-MES-1
How it was run: as §1

LCLC-103H = system: LCLC-103H
How it was run: as §1

RERF-LC-KJ = system: RERF-LC-KJ
How it was run: as §1

PC-14 = system: PC-14
How it was run: as §1

NCI-H2085 = system: NCI-H2085
How it was run: as §1

NCI-H2087 = system: NCI-H2087
How it was run: as §1

NCI-H1395 = system: NCI-H1395
How it was run: as §1

NCI-H647 = system: NCI-H647
How it was run: as §1

EPLC-272H = system: EPLC-272H
How it was run: as §1

NCI-H596 = system: NCI-H596
How it was run: as §1

A-427 = system: A-427
How it was run: as §1

NCI-H1993 = system: NCI-H1993
How it was run: as §1

## Cc1cnc(-c2cnc(NCCNc3ccc(C#N)cn3)nc2-c2ccc(Cl)cc2Cl)[nH]1 + O=C(CCCCCCC(=O)Nc1ccccc1)NO [Vorinostat] (partner 1 µM)
NCI-H2023; first compound 0.08 µM
  relative viability: 0.897
NCI-H2023; first compound 0.253 µM
  relative viability: 0.473
NCI-H2023; first compound 0.8 µM
  relative viability: 0.465
NCI-H2023; first compound 2.53 µM
  relative viability: 0.731
COR-L 105; first compound 0.08 µM
  relative viability: 0.942
COR-L 105; first compound 0.253 µM
  relative viability: 0.77
COR-L 105; first compound 0.8 µM
  relative viability: 0.596
COR-L 105; first compound 2.53 µM
  relative viability: 0.663
COR-L23; first compound 0.08 µM
  relative viability: 0.556
COR-L23; first compound 0.253 µM
  relative viability: 0.42
COR-L23; first compound 0.8 µM
  relative viability: 0.508
COR-L23; first compound 2.53 µM
  relative viability: 0.505
NCI-H1975; first compound 0.08 µM
  relative viability: 0.783
NCI-H1975; first compound 0.253 µM
  relative viability: 0.699
NCI-H1975; first compound 0.8 µM
  relative viability: 0.732
NCI-H1975; first compound 2.53 µM
  relative viability: 0.614
CAL-12T; first compound 0.08 µM
  relative viability: 0.928
CAL-12T; first compound 0.253 µM
  relative viability: 0.702
CAL-12T; first compound 0.8 µM
  relative viability: 0.848
CAL-12T; first compound 2.53 µM
  relative viability: 0.807
NCI-H2170; first compound 0.08 µM
  relative viability: 0.837
NCI-H2170; first compound 0.8 µM
  relative viability: 0.734
NCI-H2170; first compound 2.53 µM
  relative viability: 0.714
LXF-289; first compound 0.08 µM
  relative viability: 0.737
LXF-289; first compound 0.253 µM
  relative viability: 0.693
LXF-289; first compound 0.8 µM
  relative viability: 0.734
LXF-289; first compound 2.53 µM
  relative viability: 0.846
HOP-62; first compound 0.08 µM
  relative viability: 0.733
HOP-62; first compound 0.8 µM
  relative viability: 0.545
HOP-62; first compound 2.53 µM
  relative viability: 0.594
NCI-H1651; first compound 0.08 µM
  relative viability: 0.539
NCI-H1651; first compound 0.253 µM
  relative viability: 0.459
NCI-H1651; first compound 0.8 µM
  relative viability: 0.537
NCI-H1651; first compound 2.53 µM
  relative viability: 0.58
NCI-H650; first compound 0.08 µM
  relative viability: 0.544
NCI-H650; first compound 0.253 µM
  relative viability: 0.423
NCI-H650; first compound 0.8 µM
  relative viability: 0.4
NCI-H650; first compound 2.53 µM
  relative viability: 0.443
NCI-H3122; first compound 0.08 µM
  relative viability: 0.989
NCI-H3122; first compound 0.8 µM
  relative viability: 0.934
NCI-H3122; first compound 2.53 µM
  relative viability: 0.951
SK-MES-1; first compound 0.08 µM
  relative viability: 1.07
SK-MES-1; first compound 0.253 µM
  relative viability: 0.977
SK-MES-1; first compound 0.8 µM
  relative viability: 1.19
SK-MES-1; first compound 2.53 µM
  relative viability: 1.24
LCLC-103H; first compound 0.08 µM
  relative viability: 0.728
LCLC-103H; first compound 0.253 µM
  relative viability: 0.541
LCLC-103H; first compound 0.8 µM
  relative viability: 0.689
LCLC-103H; first compound 2.53 µM
  relative viability: 0.698
RERF-LC-KJ; first compound 0.08 µM
  relative viability: 0.815
RERF-LC-KJ; first compound 0.253 µM
  relative viability: 0.565
RERF-LC-KJ; first compound 0.8 µM
  relative viability: 0.58
RERF-LC-KJ; first compound 2.53 µM
  relative viability: 0.677
PC-14; first compound 0.08 µM
  relative viability: 0.851
PC-14; first compound 0.253 µM
  relative viability: 0.603
PC-14; first compound 0.8 µM
  relative viability: 0.727
PC-14; first compound 2.53 µM
  relative viability: 0.587
NCI-H2085; first compound 0.08 µM
  relative viability: 0.886
NCI-H2085; first compound 0.253 µM
  relative viability: 0.769
NCI-H2085; first compound 0.8 µM
  relative viability: 0.824
NCI-H2085; first compound 2.53 µM
  relative viability: 0.997
NCI-H2087; first compound 0.08 µM
  relative viability: 0.871
NCI-H2087; first compound 0.8 µM
  relative viability: 0.514
NCI-H2087; first compound 2.53 µM
  relative viability: 0.663
NCI-H1395; first compound 0.08 µM
  relative viability: 0.847
NCI-H1395; first compound 0.253 µM
  relative viability: 0.577
NCI-H1395; first compound 0.8 µM
  relative viability: 0.62
NCI-H1395; first compound 2.53 µM
  relative viability: 0.6
NCI-H647; first compound 0.08 µM
  relative viability: 0.609
NCI-H647; first compound 0.253 µM
  relative viability: 0.399
NCI-H647; first compound 0.8 µM
  relative viability: 0.743
NCI-H647; first compound 2.53 µM
  relative viability: 0.357
EPLC-272H; first compound 0.08 µM
  relative viability: 0.658
EPLC-272H; first compound 0.8 µM
  relative viability: 0.531
EPLC-272H; first compound 2.53 µM
  relative viability: 0.581
NCI-H596; first compound 0.08 µM
  relative viability: 0.544
NCI-H596; first compound 0.253 µM
  relative viability: 0.568
NCI-H596; first compound 0.8 µM
  relative viability: 0.501
NCI-H596; first compound 2.53 µM
  relative viability: 0.688
A-427; first compound 0.08 µM
  relative viability: 0.868
A-427; first compound 0.253 µM
  relative viability: 0.826
A-427; first compound 0.8 µM
  relative viability: 0.826
A-427; first compound 2.53 µM
  relative viability: 0.854
NCI-H1993; first compound 0.08 µM
  relative viability: 1.26
NCI-H1993; first compound 0.253 µM
  relative viability: 0.761
NCI-H1993; first compound 0.8 µM
  relative viability: 0.727
NCI-H1993; first compound 2.53 µM
  relative viability: 0.76
